Measurements: patent publication US4400534A, “Analgesic and anti-inflammatory agents” (Sankyo Company, Limited, priority 1980, dated 1983)

How the values were obtained:
[1] = molecular target: T1, microsome prostaglandin-biosynthesis enzyme (Bos taurus, UniProt O62664); experiment: Inhibition of PG-biosynthesis enzyme activity, bovine seminal vesicle microsome test; format: biochemical; settings: for IC50: bovine seminal vesicle microsome 1mg/ml, 14C-arachidonic acid 10 μM, pH 7.6, 30° C., 10 minutes, prostaglandin E2 measured, read-out: Inhibition of PG-biosynthesis enzyme activity, Bovine seminal vesicle microsome I50
T1 construct: microsome prostaglandin-biosynthesis enzyme (1mg/ml) fractionated from bovine seminal vesicles; from tissue; host or cells: bovine seminal vesicles (microsomes)
T1 sequence (O62664 25-600): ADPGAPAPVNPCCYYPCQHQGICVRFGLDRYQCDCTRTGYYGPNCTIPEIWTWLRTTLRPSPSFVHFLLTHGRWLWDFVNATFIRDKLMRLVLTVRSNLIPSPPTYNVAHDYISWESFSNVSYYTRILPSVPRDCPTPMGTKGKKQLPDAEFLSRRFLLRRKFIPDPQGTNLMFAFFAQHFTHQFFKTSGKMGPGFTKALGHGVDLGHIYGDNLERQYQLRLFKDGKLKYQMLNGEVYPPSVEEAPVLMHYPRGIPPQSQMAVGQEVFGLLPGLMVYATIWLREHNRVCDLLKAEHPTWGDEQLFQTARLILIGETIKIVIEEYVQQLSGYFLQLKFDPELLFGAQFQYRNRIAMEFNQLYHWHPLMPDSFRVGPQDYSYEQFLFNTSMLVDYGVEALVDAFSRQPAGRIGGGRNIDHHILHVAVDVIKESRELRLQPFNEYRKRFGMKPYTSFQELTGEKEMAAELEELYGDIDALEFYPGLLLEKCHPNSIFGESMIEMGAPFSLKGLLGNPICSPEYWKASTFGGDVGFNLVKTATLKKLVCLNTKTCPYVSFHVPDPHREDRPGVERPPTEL
Procedure: Microsome tests were conducted according to the methods of E Takeguchi, E Kohno, C J Sih: Biochemistry 10, 2372 (1971), "Preparation of bovine seminal vesicle" and of R J Flower, H S Cheung, D W Cushman: Prostaglandins 4, 325 (1973), "Pharmacological action system."
The compounds under test were added to a system comprising microsome prostaglandin-biosynthesis enzyme (1mg/ml) fractionated from bovine seminal vesicles, glutathione (2 mM), epinephrine (1 mM) and trisaminomethane-hydrochloric acid buffer solution pH 7.6 (0.1 M). The mixture was left to stand at 30° C. for 5 minutes and commercially available ^14 C-arachidonic acid (10 μM, 50-60 nCi) was added. The resultant solution was maintained at 30° C. for 10 minutes and reaction then stopped by addition of 0.1 N hydrochloric acid. After extraction of the reaction mixture, the extract was separated by thin layer chromatography on silica gel to give the prostaglandin which was produced. The main product, prostaglandin E2, was measured using a liquid scintilation counter in accordance with the method of L Levine et al: Journal of Biological Chemistry (246, 6782 (1971). The inhibitory activities were assayed by the radioactivity ratio of the sample to a blank.

[2] = system: prostaglandin-biosynthesis in 3T6 cells; experiment: Inhibition of prostaglandin-biosynthesis in cultured cells (3T6 cells from mouse fibroblasts); format: cell-based; settings: for IC50: Mus musculus, Fibroblast, 3T6 cells, 2 hours contact, then arachidonic acid 5 μg/ml, 1 hour, prostaglandin E2 by radioimmunoassay, read-out: Inhibition of PG-biosynthesis enzyme activity, Culture cells I50
Procedure: 3T6 cells from mouse fibroblasts were used as the cultured cells.
About six hundred thousand 3T6 cells were cultured in a plastics Petri dish (35 mm inner diameter) at 37° C. for 48 hours using a minimum-requirement medium, Darbecco (Trade Mark). After culturing, the cells were separated, washed, and then contacted with the same medium but containing the compound under test. After contacting for 2 hours, the medium was separated off and the cells washed. The medium containing 5 μg/ml of arachidonic acid and the test compound were added. Culturing was allowed to continue for 1 hour, and then the concentration of the prostaglandin E2 in the medium was assayed by radioimmunoassay.

Row | Structure (SMILES) | IC50 [1] [µM] | IC50 [2] [µM] | activity compared to indomethacin (in words) ([2]; cultured cells test, called in vivo) | inhibition of prostaglandin-biosynthesis enzyme activity (in words) [1]
1 | C[C@H](C(=O)O)c1ccc(CC2CCCC2O)cc1 (stereo partly drawn) [I, (2S)-2-[4-(2-hydroxycyclopentan-1-ylmethyl)phenyl]propionic acid] | 72 |  |  | 
2 | COc1ccc2c(c1)c(CC(=O)O)c(C)n2C(=O)c1ccc(Cl)cc1 [IM, indomethacin, reference compound] |  | 0.34 |  | 
3 | C[C@H](C(=O)O)c1ccc(CC2CCCC2O)cc1 (stereo partly shown) [II + III] | 13 |  |  | 
4 | C[C@H](C(=O)O)c1ccc(C[C@H]2CCC[C@@H]2O)cc1 [II, (2S)-2-{4-[(1R,2S)-2-hydroxycyclopentan-1-ylmethyl]phenyl}propionic acid] | 9 | 0.25 | better activity in the compound (II) compared to indomethacin | more active than the compound (I)
